Results: patent US20060112439A1, “Delta opioid receptor disruptions, compositions and methods related thereto” (priority 2001, published 2006)

System: mice (F2N1 wild-type and delta-opioid receptor homozygous mutant)
Assay: Metrazol Test (seizure susceptibility; tail vein infusion of pentylenetetrazole)
Type: in vivo, mouse
Conditions: n=10, about 5 mg/ml infused via tail vein at about 0.375 ml/min
Method: A metrazol administration test can be used to screen animals for varying susceptibilities to seizures or similar events. For example, a 5 mg/ml solution of metrazol can be infused through the tail vein of a mouse at a rate of, e.g., approximately 0.375 ml/min. The infusion will cause all mice to experience seizures, followed by death. Those mice that enter the seizure stage the soonest are believed to be more prone to seizures.
To screen for phenotypes involving changes in seizure susceptibility, the Metrazol Test was be used. About 5 mg/ml of Metrazol was infused through the tail vein of the mouse at a constant rate of about 0.375 ml/min. The infusion caused all mice to experience seizures. Those mice entering the seizure stage the quickest were thought to be more prone to seizures in general.
The Metrazol test can also be used to screen for phenotypes related to epilepsy. Ten adult F2N1 wild-type control male mice and ten F2N1 homozygous mutant males were used, all derived from the same ES cell line. A fresh solution of about 5 mg/ml pentylenetetrazole in approximately 0.9% NaCl was prepared prior to testing. Mice were weighed and loosely held in a restrainer. After exposure to a heat lamp to dilate the tail vein, mice were continuously infused with the pentylenetetrazole solution using a syringe pump set at a constant flow rate. The following stages were recorded: first twitch (sometimes accompanied by a squeak), beginning of the tonic/clonic seizure, tonic extension and survival time. The dose required for each phase was determined and the latency to each phase was determined between genotypes. Alterations in any stage may indicate an overall imbalance in excitatory or inhibitory neurotransmitter levels.

[1] = F2N1 delta-opioid receptor homozygous mutant (−/−) male mice

With `C1CCc2nnnn2CC1` [metrazol, pentylenetetrazole] the “Dose (average ± std dev) to death” value [1] was 121.96 ± 31.09 mg/kg, the “Dose (average ± std dev) to first twitch” value [1] was 30.97 ± 5.20 mg/kg and the “Dose (average ± std dev) to tonic extension” value [1] was 97.59 ± 32.27 mg/kg. For the same compound, the “Dose (average ± std dev) to tonic/clonic seizure” value [1] was 53.48 ± 12.44 mg/kg, the “Dose (average ± std dev) to death” value (F2N1 wild-type (+/+) male mice) was 181.91 ± 83.20 mg/kg and the “Dose (average ± std dev) to first twitch” value (F2N1 wild-type (+/+) male mice) was 28.23 ± 5.58 mg/kg. For the same compound, the “Dose (average ± std dev) to tonic extension” value (F2N1 wild-type (+/+) male mice) was 126.54 ± 23.60 mg/kg and the “Dose (average ± std dev) to tonic/clonic seizure” value (F2N1 wild-type (+/+) male mice) was 39.62 ± 8.21 mg/kg.
